Data as given in ChEMBL document CHEMBL1681724, “Discovery of potent and orally bioavailable heterocycle-based cannabinoid CB1 receptor agonists” (Bioorg Med Chem Lett, 2011).
≈ marks a conversion by molar mass, not a printed value.

Columns and labels:
Cannabinoid receptor 1 [1] = biological target: T1, Cannabinoid receptor 1 (Homo sapiens, UniProt P21554); assay: Agonist activity at human cannabinoid CB1 receptor expressed in CHO cells by luciferase reporter gene assay; type: functional, cell-based
[2] = Aqueous solubility of the compound at pH 7.4; type: physicochemical; conditions: aqueous medium
[3] = Apparent permeability from basolateral to apical side of human Caco2 cells; type: ADME, cell-based; conditions: Caco-2
[4] = Oral bioavailability in rat at 5 mg/kg; type: ADME, organism-based; conditions: in vivo
[5] = Clearance in rat at 0.4 mg/kg, iv; type: ADME, organism-based; design: dose 0.4 mg/kg, route intravenous; conditions: in vivo
Cannabinoid receptor 2 = Cannabinoid receptor 2 (Homo sapiens, UniProt P34972); assay: Displacement of [3H]CP55940 from human cannabinoid CB2 receptor expressed in insect Sf9 cells
[6] = Half life in rat at 0.4 mg/kg, iv; type: ADME, organism-based; design: dose 0.4 mg/kg, route intravenous; conditions: in vivo
[7] = Cmax in rat at 5 mg/kg, po; type: ADME, organism-based; design: dose 5 mg/kg, route oral; conditions: in vivo
[8] = AUC in rat plasma at 5 mg/kg, po; type: ADME, organism-based; design: dose 5 mg/kg, route oral
[9] = Volume of distribution at steady state in rat at 0.4 mg/kg, iv; type: ADME, organism-based; design: dose 0.4 mg/kg, route intravenous; conditions: in vivo, read-out: Vdss
[10] = AUC in rat plasma at 0.4 mg/kg, iv; type: ADME, organism-based; design: dose 0.4 mg/kg, route intravenous
Cannabinoid receptor 1 [11] = biological target: T1, Cannabinoid receptor 1; assay: Displacement of [3H]CP55940 from human cannabinoid CB1 receptor expressed in insect Sf9 cells
[12] = Tmax in rat at 5 mg/kg, po; type: ADME, organism-based; design: dose 5 mg/kg, route oral; conditions: in vivo
[13] = Genotoxicity in Salmonella Typhimurium at 10^-4 M by Ames test; type: toxicity; conditions: salmonella enterica subsp. enterica serovar typhimurium, 100 µM
[14] = Apparent permeability from apical to basolateral side of human Caco2 cells; type: ADME, cell-based; conditions: Caco-2

T1 sequence (P21554 whole entry): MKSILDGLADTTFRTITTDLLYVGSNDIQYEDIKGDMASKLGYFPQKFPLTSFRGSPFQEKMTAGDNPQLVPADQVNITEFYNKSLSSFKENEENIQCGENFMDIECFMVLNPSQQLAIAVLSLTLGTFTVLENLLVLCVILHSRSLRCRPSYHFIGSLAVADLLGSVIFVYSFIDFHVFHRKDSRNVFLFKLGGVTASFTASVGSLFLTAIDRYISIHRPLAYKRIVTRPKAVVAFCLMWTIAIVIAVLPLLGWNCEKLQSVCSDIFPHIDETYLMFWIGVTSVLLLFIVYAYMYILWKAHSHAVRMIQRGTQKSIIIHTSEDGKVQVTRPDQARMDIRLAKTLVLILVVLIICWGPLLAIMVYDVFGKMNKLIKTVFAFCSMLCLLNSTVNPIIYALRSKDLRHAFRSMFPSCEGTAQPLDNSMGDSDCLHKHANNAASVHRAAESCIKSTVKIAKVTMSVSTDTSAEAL
Chain of Cannabinoid receptor 2 (P34972 whole entry): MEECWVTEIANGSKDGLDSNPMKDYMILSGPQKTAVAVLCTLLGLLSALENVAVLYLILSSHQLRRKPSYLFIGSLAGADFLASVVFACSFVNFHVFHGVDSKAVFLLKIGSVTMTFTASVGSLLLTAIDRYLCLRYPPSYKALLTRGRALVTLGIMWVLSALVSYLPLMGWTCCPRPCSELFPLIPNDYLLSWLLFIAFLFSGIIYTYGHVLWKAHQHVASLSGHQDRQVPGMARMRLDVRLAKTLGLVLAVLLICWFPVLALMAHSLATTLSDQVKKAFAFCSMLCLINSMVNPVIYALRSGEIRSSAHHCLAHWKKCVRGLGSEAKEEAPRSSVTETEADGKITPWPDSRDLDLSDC

SMILES | EC50 (Cannabinoid receptor 1 [1]) | solubility [2] | other results
COCCN(C)Cc1nc(-c2cn(CC3CCOCC3)c3c(Cl)cccc23)ns1 | 79.4 nM | < 1 µg/mL | 
Clc1cccc2c(-c3nsc(CN4CCCC4)n3)cn(CC3CCCCC3)c12 | 15.8 nM | < 1 µg/mL | 
Clc1cccc2c(-c3nsc(CN4CCCC4)n3)cn(CC3CCOCC3)c12 |  | < 1 µg/mL | 
CC(=O)N[C@@H]1CCN(Cc2nc(-c3cn(CC4CCOCC4)c4c(Cl)cccc34)ns2)C1 | 794 nM | 16 µg/mL (≈ 33.8 µM) | 
OC[C@H]1CCCN1Cc1nc(-c2cn(CC3CCOCC3)c3c(Cl)cccc23)ns1 | 15.8 nM | < 1 µg/mL | 
O=C(O)C1CCCN1Cc1nc(-c2cn(CC3CCOCC3)c3c(Cl)cccc23)ns1 (stereo not drawn) | 158 nM | 108 µg/mL (≈ 234 µM) | 
NC(=O)CNC(=O)[C@@H]1CCCN1Cc1nc(-c2cn(CC3CCOCC3)c3c(Cl)cccc23)ns1 | 398 nM | 15 µg/mL (≈ 29 µM) | 
CN(CCO)Cc1nc(-c2cn(CC3CCOCC3)c3c(Cl)cccc23)ns1 | 79.4 nM | < 1 µg/mL | 
COCCN(Cc1nc(-c2cn(CC3CCOCC3)c3c(Cl)cccc23)ns1)S(C)(=O)=O |  | < 1 µg/mL | 
CS(=O)(=O)N(CCO)Cc1nc(-c2cn(CC3CCOCC3)c3c(Cl)cccc23)ns1 |  | < 1 µg/mL | 
COCCN(C)Cc1nc(-c2cn(CC3CCS(=O)(=O)CC3)c3c(Cl)cccc23)ns1 | 200 nM | < 1 µg/mL | 
Clc1cccc2c(-c3noc(CN4CCCC4)n3)cn(CC3CCOCC3)c12 | 100 nM | < 1 µg/mL | 
CN(CC(N)=O)Cc1nc(-c2cn(CC3CCOCC3)c3c(Cl)cccc23)no1 |  | 21 µg/mL (≈ 50.3 µM) | Papp B→A [3]: 12.7 ×10⁻⁶ cm/s; bioavailability [4]: 53%; clearance [5]: 28 mL/min/kg; Ki (Cannabinoid receptor 2): 6.31 nM; half-life [6]: 1.4 h; Cmax [7]: 173 ng/mL; AUC [8]: 1570 ng·h/mL; Vd [9]: 3 L/kg; AUC [10]: 244 ng·h/mL; Ki (Cannabinoid receptor 1 [11]): 3.98 nM; Tmax [12]: 1 h; Activity [13]: Non-toxic; Papp A→B [14]: 8.3 ×10⁻⁶ cm/s
CN(CC(=O)NCCO)Cc1nc(-c2cn(CC3CCOCC3)c3c(Cl)cccc23)no1 |  | 88 µg/mL (≈ 190 µM) | 
CN(Cc1nc(-c2cn(CC3CCOCC3)c3c(Cl)cccc23)no1)[C@@H](CO)C(N)=O | 251 nM | 95 µg/mL (≈ 212 µM) | 
O=C(NCCO)C1CCN(Cc2nc(-c3cn(CC4CCOCC4)c4c(Cl)cccc34)no2)CC1 | 126 nM | 115 µg/mL (≈ 229 µM) | 
COCC(=O)NCc1nc(-c2cn(CC3CCOCC3)c3c(Cl)cccc23)no1 |  | 4 µg/mL (≈ 9.55 µM) | 
CCNC(=O)NCc1nc(-c2cn(CC3CCOCC3)c3c(Cl)cccc23)no1 | 2000 nM | < 1 µg/mL | 
CN(C)S(=O)(=O)N(C)Cc1nc(-c2cn(CC3CCOCC3)c3c(Cl)cccc23)no1 | 31.6 nM | < 1 µg/mL | 
CC(C)N(CCO)Cc1csc(-c2c(CC3CCOCC3)[nH]c3c(Cl)cccc23)n1 | ≤ 100 nM | > 10 µg/mL | bioavailability [4]: 4%
